{"source": "patent US20240277740A1", "about": "“TREATMENT OF KNOWN AND UNKNOWN VIRAL INFECTION WITH LIPID AGENTS” (Viratides, LLC, priority 2020, published 2024)", "key": {"[1]": {"tested_on": "SARS-CoV-2 (MEX-BC2/2020)", "experiment": "Live SARS-CoV-2 CPE-based antiviral assay in Vero E6 cells (neutral red)", "assay_type": "cell-based"}, "uninfected Vero E6 cells": {"tested_on": "uninfected Vero E6 cells", "details": "for Viability of Uninfected Vero E6 Cells: 4-day treatment, mean ± s.d. of duplicates; for Viability of Uninfected Vero E6 Cells (A540): 4 days, raw duplicates"}}, "note": "pIC50: −log10 of the molar value. “And” between values parts separate entries of the source, which are not always exact repeats. Identical values can stand only once. Like-named read-outs stand apart in the source and are kept apart here."}
{"smiles": "N#C[C@@]1(c2ccc3c(N)ncnn23)O[C@H](CO)[C@@H](O)[C@H]1O", "note": "[GS-441524, reference compound]", "values": [{"measurement": "Inhibition of SARS-CoV-2 (MEX-BC2/2020) Virus-Induced CPE", "setting": "[1]; 0.03 μM, single data point", "result": 0.09, "unit": "% mock"}, {"measurement": "Inhibition of SARS-CoV-2 (MEX-BC2/2020) Virus-Induced CPE", "setting": "[1]; 0.08 μM, single data point", "result": 1.1, "unit": "% mock"}, {"measurement": "Inhibition of SARS-CoV-2 (MEX-BC2/2020) Virus-Induced CPE", "setting": "[1]; 0.25 μM, single data point", "result": 16.1, "unit": "% mock"}, {"measurement": "Raw OD - Absorbance (540 nm), infected cells", "setting": "[1]; 0.25 μM, single data point", "result": 0.194}, {"measurement": "Inhibition of SARS-CoV-2 (MEX-BC2/2020) Virus-Induced CPE", "setting": "[1]; 0.74 μM, single data point", "result": 134.9, "unit": "% mock"}, {"measurement": "Raw OD - Absorbance (540 nm), infected cells", "setting": "[1]; 0.74 μM, single data point", "result": 0.648}, {"measurement": "Inhibition of SARS-CoV-2 (MEX-BC2/2020) Virus-Induced CPE", "setting": "[1]; 1 μM", "result": 110.2, "unit": "% mock"}, {"measurement": "Raw OD - Absorbance (540 nm), infected cells", "setting": "[1]; 1 μM", "result": "0.554 and 0.553"}, {"measurement": "Inhibition of SARS-CoV-2 (MEX-BC2/2020) Virus-Induced CPE", "setting": "[1]; 6.7 μM, single data point", "result": 116.6, "unit": "% mock"}, {"measurement": "Raw OD - Absorbance (540 nm), infected cells", "setting": "[1]; 6.7 μM, single data point", "result": 0.578}, {"measurement": "Inhibition of SARS-CoV-2 (MEX-BC2/2020) Virus-Induced CPE", "setting": "[1]; 10 μM", "result": 100.0, "unit": "% mock"}, {"measurement": "Raw OD - Absorbance (540 nm), infected cells", "setting": "[1]; 10 μM", "result": "0.507 and 0.522"}, {"measurement": "pIC50", "setting": "[1]; Severe acute respiratory syndrome coronavirus 2, Vero C1008, Vero E6, 96 h, estimated by GraphPad Prism, R2 = 0.977", "result": "~6.55"}, {"measurement": "concentrations at which virus-induced CPE was completely prevented", "setting": "[1]; Vero E6", "result": "≥ 0.74", "unit": "µM"}, {"measurement": "prevention of virus-induced CPE by control inhibitor (in words)", "setting": "[1]; quality control of infectivity assay", "result": "prevented completely the virus-induced CPE"}]}
{"smiles": "CCCCCCCC/C=C\\CCCCCCCCCCCCCC(=O)N[C@@H](CO[C@@H]1O[C@H](CO)[C@H](O)[C@H](OS(=O)(=O)O)[C@H]1O)[C@H](O)/C=C/CCCCCCCCCCCCC", "note": "[Sulfatide 24:1, C24:1 3′-sulfo Galactosylceramide (d18:1/24:1(15Z))]", "values": [{"measurement": "CC50", "setting": "uninfected Vero E6 cells", "result": ">100", "unit": "µg/mL"}, {"measurement": "cytotoxicity in viability assay (in words)", "setting": "uninfected Vero E6 cells", "result": "dose-dependent trend of cytotoxicity"}, {"measurement": "Viability of Uninfected Vero E6 Cells", "setting": "uninfected Vero E6 cells; 0.78 μg/mL", "result": "89.8 ± 5.8", "unit": "% vehicle"}, {"measurement": "Viability of Uninfected Vero E6 Cells (A540)", "setting": "uninfected Vero E6 cells; 0.78 μg/mL", "result": "0.457 and 0.424"}, {"measurement": "Viability of Uninfected Vero E6 Cells", "setting": "uninfected Vero E6 cells; 1.6 μg/mL", "result": "99.3 ± 1.4", "unit": "% vehicle"}, {"measurement": "Viability of Uninfected Vero E6 Cells (A540)", "setting": "uninfected Vero E6 cells; 1.6 μg/mL", "result": "0.495 and 0.487"}, {"measurement": "Viability of Uninfected Vero E6 Cells", "setting": "uninfected Vero E6 cells; 3.1 μg/mL", "result": "97.3 ± 1.4", "unit": "% vehicle"}, {"measurement": "Viability of Uninfected Vero E6 Cells (A540)", "setting": "uninfected Vero E6 cells; 3.1 μg/mL", "result": "0.487 and 0.479"}, {"measurement": "Viability of Uninfected Vero E6 Cells", "setting": "uninfected Vero E6 cells; 6.25 μg/mL", "result": "95.7 ± 2.3", "unit": "% vehicle"}, {"measurement": "Viability of Uninfected Vero E6 Cells (A540)", "setting": "uninfected Vero E6 cells; 6.25 μg/mL", "result": "0.483 and 0.470"}, {"measurement": "Viability of Uninfected Vero E6 Cells", "setting": "uninfected Vero E6 cells; 12.5 μg/mL", "result": "95.6 ± 3.5", "unit": "% vehicle"}, {"measurement": "Viability of Uninfected Vero E6 Cells (A540)", "setting": "uninfected Vero E6 cells; 12.5 μg/mL", "result": "0.486 and 0.466"}, {"measurement": "Viability of Uninfected Vero E6 Cells", "setting": "uninfected Vero E6 cells; 25 μg/mL", "result": "85.8 ± 11.0", "unit": "% vehicle"}, {"measurement": "Viability of Uninfected Vero E6 Cells (A540)", "setting": "uninfected Vero E6 cells; 25 μg/mL", "result": "0.468 and 0.405"}, {"measurement": "Viability of Uninfected Vero E6 Cells", "setting": "uninfected Vero E6 cells; 50 μg/mL", "result": "73.7 ± 13.1", "unit": "% vehicle"}, {"measurement": "Viability of Uninfected Vero E6 Cells (A540)", "setting": "uninfected Vero E6 cells; 50 μg/mL", "result": "0.425 and 0.350"}, {"measurement": "Viability of Uninfected Vero E6 Cells", "setting": "uninfected Vero E6 cells; 100 μg/mL", "result": "63.8 ± 7.9", "unit": "% vehicle"}, {"measurement": "Viability of Uninfected Vero E6 Cells (A540)", "setting": "uninfected Vero E6 cells; 100 μg/mL", "result": "0.370 and 0.325"}, {"measurement": "Inhibition of SARS-CoV-2 (MEX-BC2/2020) Virus-Induced CPE", "setting": "[1]; 0.78 μg/mL, average ± s.d. of duplicates", "result": "−3.4 ± 0.6", "unit": "% mock"}, {"measurement": "Raw OD - Absorbance (540 nm), infected cells", "setting": "[1]; 0.78 μg/mL, duplicates", "result": "0.121 and 0.118"}, {"measurement": "Inhibition of SARS-CoV-2 (MEX-BC2/2020) Virus-Induced CPE", "setting": "[1]; 1.6 μg/mL, average ± s.d. of duplicates", "result": "−1.7 ± 4.1", "unit": "% mock"}, {"measurement": "Raw OD - Absorbance (540 nm), infected cells", "setting": "[1]; 1.6 μg/mL, duplicates", "result": "0.137 and 0.115"}, {"measurement": "Inhibition of SARS-CoV-2 (MEX-BC2/2020) Virus-Induced CPE", "setting": "[1]; 3.1 μg/mL, average ± s.d. of duplicates", "result": "−3.6 ± 1.1", "unit": "% mock"}, {"measurement": "Raw OD - Absorbance (540 nm), infected cells", "setting": "[1]; 3.1 μg/mL, duplicates", "result": "0.122 and 0.116"}, {"measurement": "Inhibition of SARS-CoV-2 (MEX-BC2/2020) Virus-Induced CPE", "setting": "[1]; 6.25 μg/mL, average ± s.d. of duplicates", "result": "−3.8 ± 1.1", "unit": "% mock"}, {"measurement": "Raw OD - Absorbance (540 nm), infected cells", "setting": "[1]; 6.25 μg/mL, duplicates", "result": "0.115 and 0.121"}, {"measurement": "Inhibition of SARS-CoV-2 (MEX-BC2/2020) Virus-Induced CPE", "setting": "[1]; 12.5 μg/mL, average ± s.d. of duplicates", "result": "1.3 ± 3.9", "unit": "% mock"}, {"measurement": "Raw OD - Absorbance (540 nm), infected cells", "setting": "[1]; 12.5 μg/mL, duplicates", "result": "0.127 and 0.18"}, {"measurement": "Inhibition of SARS-CoV-2 (MEX-BC2/2020) Virus-Induced CPE", "setting": "[1]; 25 μg/mL, average ± s.d. of duplicates", "result": "1.9 ± 2.2", "unit": "% mock"}, {"measurement": "Raw OD - Absorbance (540 nm), infected cells", "setting": "[1]; 25 μg/mL, duplicates", "result": "0.134 and 0.146"}, {"measurement": "Inhibition of SARS-CoV-2 (MEX-BC2/2020) Virus-Induced CPE", "setting": "[1]; 50 μg/mL, average ± s.d. of duplicates", "result": "21.6 ± 13.0", "unit": "% mock"}, {"measurement": "Raw OD - Absorbance (540 nm), infected cells", "setting": "[1]; 50 μg/mL, duplicates", "result": "0.180 and 0.250"}, {"measurement": "Inhibition of SARS-CoV-2 (MEX-BC2/2020) Virus-Induced CPE", "setting": "[1]; 100 μg/mL, average ± s.d. of duplicates", "result": "61.3 ± 8.5", "unit": "% mock"}, {"measurement": "Raw OD - Absorbance (540 nm), infected cells", "setting": "[1]; 100 μg/mL, duplicates", "result": "0.390 and 0.344"}, {"measurement": "IC50 (antiviral)", "setting": "[1]; Vero E6, 96 h, neutral red", "result": 84.9, "unit": "µg/mL"}, {"measurement": "prevention of virus-induced CPE (in words)", "setting": "[1]; at the two highest concentrations tested, 50 μg/mL and 100 μg/mL", "result": "prevented the virus-induced cytopathic effect (CPE) in a dose-dependent manner"}]}
{"smiles": "C[S+](C)[O-]", "note": "[DMSO, reference compound]", "values": [{"measurement": "block of cell viability", "setting": "uninfected Vero E6 cells; tested at 10%", "result": "more than 95%"}]}
